# Measurements: patent US6835386B2, “Collar containing a novel gel formulation to control arthropod infestation of animals” (Pfizer Inc., priority 1998, dated 2004)
# Assay: Miscibility of insecticide in gel formulation
# Type: physicochemical
# From the text: Thus, the improved gel formulation allows permeation of an effective amount of the active ingredient to occur in about 3 days, as compared to about 3 to 5 weeks for prior formulations. As a result of this shortened initial permeation period, the device is ready for use more quickly after manufacture, thereby reducing or eliminating the amount of time that such devices must be stored prior to use. Additional advantages of the device of the present invention include eliminating several of the problems associated with the use of a mineral oil-based gel, such as leaving an oily residue on the animal, the potential for triggering skin irritations, and inhibiting the process of sealing the reservoir. In addition, insecticides such as cypermethrin which are not miscible in mineral oil-based gels are miscible in the improved gel formulation of the present invention.
smiles,measurement,setting,value
CC1(C)C(C=C(Cl)Cl)C1C(=O)OC(C#N)c1cccc(Oc2ccccc2)c1 (centres unmarked) [cypermethrin],Miscibility,in mineral oil-based gels,not miscible
same,Miscibility,in the improved gel formulation of the present invention,miscible
